Results from PMC6838013, “Insight Into Mosquito GnRH-Related Neuropeptide Receptor Specificity Revealed Through Analysis of Naturally Occurring and Synthetic Analogs of This Neuropeptide Family” (Frontiers in Endocrinology, 2019).
pEC50: −log10 of the molar value. Several values for one entry are separate records, joined by “and”; a condition that tells them apart may be missing. Equal values may be shown once. Non-standard residues stand in square brackets, D forms with d. Residues, ends and D or L forms follow the SMILES beside them. pGlu = O=C1CC[C@@H](C(=O)O)N1

How the values were obtained:
[1] = molecular target: A. aegypti AKHR-IA receptor (AKHR-IA) (Aedes aegypti, UniProt A0A2P1A8S4); experiment: Calcium bioluminescence (aequorin) reporter assay of heterologously expressed AKHR-IA; type: cell-based; conditions: for Fold-reduction in activity relative to Aedae-AKH: AKHR-IA in CHO-K1 aequorin cells, relative to native Aedae-AKH; for pEC50: CHO-K1 cells stably expressing aequorin, transiently transfected with AKHR-IA (pcDNA3.1+), luminescence 20 s, 3 to 4 independent biological replicates, ND = no determined EC50 due to minimal or no detectable activity up to 10 μM
Chain of A. aegypti AKHR-IA receptor (AKHR-IA) (A0A2P1A8S4 1-410): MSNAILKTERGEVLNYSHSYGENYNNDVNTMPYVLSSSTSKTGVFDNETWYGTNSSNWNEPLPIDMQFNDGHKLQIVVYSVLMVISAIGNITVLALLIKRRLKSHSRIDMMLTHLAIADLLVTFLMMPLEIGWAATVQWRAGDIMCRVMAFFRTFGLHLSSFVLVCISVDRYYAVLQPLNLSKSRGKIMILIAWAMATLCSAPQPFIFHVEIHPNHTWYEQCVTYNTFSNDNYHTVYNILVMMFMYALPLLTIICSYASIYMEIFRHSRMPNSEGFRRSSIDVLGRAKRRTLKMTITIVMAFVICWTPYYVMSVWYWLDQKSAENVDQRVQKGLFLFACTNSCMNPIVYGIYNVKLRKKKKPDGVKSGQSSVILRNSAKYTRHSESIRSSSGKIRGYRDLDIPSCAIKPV
Description: For each construct, an overnight liquid culture of clonal recombinant bacteria containing the appropriate plasmid construct was grown in antibiotic-containing LB media and used to isolate midiprep DNA using the PureLink Midiprep kit (Life Technologies, Burlington, ON). Midiprep samples were then quantified and sent for sequencing as described previously ([26], [27]).
(§1) Functional activation of the AedaeACPR and AedaeAKHR-IA receptors was carried out following a previously described mammalian cell culture system involving a Chinese hamster ovary (CHO)-K1 cell line stably expressing aequorin ([43]). Cells were grown in DMEM:F12 media containing 10% heat-inactivated fetal bovine serum (Wisent, St. Bruno, QC), 200 μg/mL Geneticin, 1x antimycotic-antibiotic to approximately 90% confluency, and were transiently transfected using either Lipofectamine LTX with Plus Reagent or Lipofectamine 3000 transfection systems (Invitrogen, Burlington, ON) following manufacturer recommended DNA to transfection reagent ratios. Cells were detached from the culture flasks at 48 h post-transfection using 5 mM EDTA in Dulbecco's PBS. Cells were then prepared for the receptor functional assay following a procedure described previously ([27]). Stocks of peptide analogs of ACP and AKH were used for preparation of serial dilutions all of which were prepared in assay media (0.1% BSA in DMEM:F12) and loaded in quadruplicates into 96-well white luminescence plates (Greiner Bio-One, Germany). Cells were loaded with an automatic injector into each well of the plate containing different peptide analogs at various concentrations as well as negative control (assay media alone) and positive control wells (50 μM ATP). Immediately after injection of the cells, luminescence was measured for 20 s using a Synergy 2 Multi-Mode Microplate Reader (BioTek, Winooski, VT, USA). Calculations, including determination of EC50 values, were conducted in GraphPad Prism 7.02 (GraphPad Software, San Diego, USA) from dose-response curves from 3 to 4 independent biological replicates.

[2] = test system: A. aegypti ACP receptor (AedaeACPR); experiment: Calcium bioluminescence (aequorin) reporter assay of heterologously expressed ACPR; type: cell-based, Aedes aegypti
Text: Therefore, to improve the bioluminescent signal linked to calcium mobilization following receptor activation, which was required in order to provide greater signal to noise ratio when testing ACP analogs with substitutions leading to intermediate levels of activation of the ACPR, we created a new mammalian expression construct using the dual promoter vector, pBudCE4.1. Specifically, we utilized a cloning strategy as reported previously ([41]) whereby the ACPR was inserted into the multiple cloning site (MCS) downstream of the CMV promoter in pBudCE4.1 using the sense primer SalI-KozakACPR, 5′-[…]-3′ and anti-sense primer XbaI-ACPR, 5′-[…]-3′, which directionally inserted the ACPR within the MCS downstream of the CMV promoter. Secondly, the murine homolog (Gα15) of the human promiscuous G protein, Gα16, which indiscriminately couples a wide variety of GPCRs to calcium signaling ([42]) was inserted into the MCS downstream of the EF1-α promoter in pBudCE4.1 using the sense primer NotI-Gα15, 5′-[…]-3′ and anti-sense primer BglII-Gα15, 5′-[…]-3′, which directionally inserted the murine Gα15 within the MCS downstream of the EF1-α promoter.
as §1

Compound: CC(C)C[C@H](NC(=O)[C@@H]1CCC(=O)N1)C(=O)N[C@H](C(=O)N[C@@H](Cc1ccccc1)C(=O)N[C@H](C(=O)N1CCC[C@H]1C(=O)NCC(=O)N[C@@H](Cc1c[nH]c2ccccc12)C(=O)NCC(=O)N[C@@H](CCC(N)=O)C(N)=O)[C@@H](C)O)[C@@H](C)O [Bommo-AKH] ([pGlu]LTFTPGWGQ-NH2)
- Fold-reduction in activity relative to Aedae-AKH [1]: 11 fold and 10.9 fold
- pEC50 [1]: 7.63
- Activity on ACPR at the highest tested dose, in words ([2]; 10 μM, Figure 2, ANOVA and Tukey post-test): inactive
- Fold-reduction in activity relative to AedaeACP ([2]; ACPR in CHO-K1 aequorin cells, relative to native Aedae-ACP): >1,000 fold

Compound: CC(C)C[C@H](NC(=O)[C@@H]1CCC(=O)N1)C(=O)N[C@@H](CC(N)=O)C(=O)N[C@@H](Cc1ccccc1)C(=O)N[C@H](C(=O)N1CCC[C@H]1C(=O)N[C@@H](CC(N)=O)C(=O)N[C@@H](Cc1c[nH]c2ccccc12)C(N)=O)[C@@H](C)O [Pyrap-AKH] ([pGlu]LNFTPNW-NH2)
- Fold-reduction in activity relative to Aedae-AKH [1]: 337 fold and 336.7 fold
- pEC50 [1]: 6.14

Compound: CC(C)C[C@H](NC(=O)[C@@H]1CCC(=O)N1)C(=O)N[C@H](C(=O)N[C@@H](Cc1ccccc1)C(=O)N[C@H](C(=O)N1CCC[C@H]1C(=O)NCC(=O)N[C@@H](Cc1c[nH]c2ccccc12)C(N)=O)[C@@H](C)O)[C@@H](C)O [Tabat-AKH] ([pGlu]LTFTPGW-NH2)
- Fold-reduction in activity relative to Aedae-AKH [1]: 0.7 fold
- pEC50 [1]: 8.82
- Improved efficacy on AKHR-IA relative to native mosquito AKH ([1]; relative to Aedae-AKH): ~ 30% and 30%

Compound: CC(C)[C@H](NC(=O)[C@@H]1CCC(=O)N1)C(=O)N[C@H](C(=O)N[C@@H](Cc1ccccc1)C(=O)N[C@H](C(=O)N1CCC[C@H]1C(=O)N[C@@H](CC(N)=O)C(=O)N[C@@H](Cc1c[nH]c2ccccc12)C(N)=O)[C@@H](C)O)[C@@H](C)O [V^2-PeramCAH-II] ([pGlu]VTFTPNW-NH2)
- Fold-reduction in activity relative to Aedae-AKH [1]: 68.8 fold
- Fold-reduction in activity relative to Aedae-AKH ([1]; listed as V^2-Peram-CAH-II): 69 fold
- pEC50 [1]: 6.83

Compound: pQLTFTSS-amide [Lacol-AKH-7mer, C-terminally truncated synthetic analog based on an endogenous peptide from Laconobia oleracea]
- AKHR-IA activation at the highest tested concentration ([1]; 10 μM, luminescence relative to maximal response with 10^−5M Aedae-AKH): ~ 7%
